Measured values reported in ChEMBL document CHEMBL3351337, “Cytotoxic 1,5-diaryl-3-oxo-1,5-pentadienes: an assessment and comparison of membrane permeability using Caco-2 and MDCK monolayers” (Bioorg Med Chem Lett, 2014).
Active and inactive are the calls of the source. No cut-off for these calls is given here.

Assays:
Caco-2 = experiment: Increase in permeability of lucifer yellow dye across human Caco2 cells; format: functional, cell-based
MDCK [1] = experiment: Increase in permeability of lucifer yellow dye across MDCK cells; format: functional, cell-based; details: Canis lupus familiaris
MDCK [2] = experiment: Cytotoxicity against MDCK cells assessed as reduction in cell viability; format: cell-based, Canis lupus familiaris; set-up: concentration or dose not given beside the values; details: dog
[3] = Cytotoxicity against human Caco2 cells assessed as reduction in cell viability; format: cell-based; details: Caco-2
[4] = Apparent permeability from apical to basolateral side in human Caco2 cells at 50 uM over 2 hrs by isocratic reverse phase HPLC method; format: ADME, cell-based; details: Caco-2
[5] = Apparent permeability from basolateral to apical side in human Caco2 cells at 50 uM over 2 hrs by isocratic reverse phase HPLC method; format: ADME, cell-based; details: Caco-2
[6] = Permeability ratio, ratio of permeability from apical to basolateral side over basolateral to apical side in human Caco2 cells at 50 uM over 2 hrs by isocratic reverse phase HPLC method; format: ADME, cell-based; details: caco-2, 2 h
[7] = Efflux ratio, ratio of permeability from basolateral to apical side over apical to basolateral side in human Caco2 cells at 50 uM over 2 hrs by isocratic reverse phase HPLC method; format: ADME, cell-based; details: Caco-2
[8] = Apparent permeability from apical to basolateral side in MDCK cells at 50 uM over 2 hrs by isocratic reverse phase HPLC method; format: ADME, cell-based, Canis lupus familiaris; details: dog
[9] = Apparent permeability from basolateral to apical side in MDCK cells at 50 uM over 2 hrs by isocratic reverse phase HPLC method; format: ADME, cell-based, Canis lupus familiaris; details: dog
MDCK [10] = experiment: Permeability ratio, ratio of permeability from apical to basolateral side over basolateral to apical side in MDCK cells at 50 uM over 2 hrs by isocratic reverse phase HPLC method; format: ADME, cell-based, Canis lupus familiaris; details: dog
[11] = (§1) Permeability ratio, ratio of permeability from basolateral to apical side over apical to basolateral side in MDCK cells at 50 uM over 2 hrs by isocratic reverse phase HPLC method; format: ADME, cell-based, Canis lupus familiaris; details: dog, MDCK
[12] = Ratio of apparent permeability from apical to basolateral side in MDCK cells to apparent permeability from apical to basolateral side in human Caco2 cells; format: ADME, cell-based; details: caco-2
[13] = Ratio of apparent permeability from basolateral to apical side in MDCK cells to apparent permeability from basolateral to apical side in human Caco2 cells; format: ADME, cell-based; details: caco-2
MDCK [14] = experiment: as §1; format: ADME, cell-based, Canis lupus familiaris; details: dog, mdck, 2 h, 50 µM

SMILES | Activity (Caco-2) | Activity (MDCK [1]) | Activity (MDCK [2]) | Activity [3] | Papp A→B at 2 h, 50 µM [4] | Papp B→A at 2 h, 50 µM [5] | Ratio [6] | efflux ratio at 2 h, 50 µM [7] | Papp A→B at 2 h, 50 µM [8] | Papp B→A at 2 h, 50 µM [9] | Ratio (MDCK [10]) | efflux ratio at 2 h, 50 µM [11] | Ratio [12] | Ratio [13] | Ratio (MDCK [14])
O=C1/C(=C/c2ccccc2F)CNC/C1=C\c1ccccc1F | inactive | Active | 4% | Non-toxic | 3.53 ×10⁻⁶ cm/s | 0.6 ×10⁻⁶ cm/s | 5.88 | 0.17 | 3.54 ×10⁻⁶ cm/s | 0.36 ×10⁻⁶ cm/s | 9.83 | 0.1 | 1 | 0.6 | –
COc1ccccc1/C=C1\CNC/C(=C\c2ccccc2OC)C1=O | inactive | Active | 4% | Non-toxic | 32.5 ×10⁻⁶ cm/s | 10.4 ×10⁻⁶ cm/s | 3.13 | 0.32 | 28.7 ×10⁻⁶ cm/s | 13.9 ×10⁻⁶ cm/s | 2.06 | 0.48 | 0.88 | 1.34 | –
CN(C)c1ccc(/C=C/C(=O)/C=C/c2ccc(N(C)C)cc2)cc1 | inactive | Active | 4% | Non-toxic | 8.42 ×10⁻⁶ cm/s | 7.02 ×10⁻⁶ cm/s | 1.2 | 0.83 | 19.7 ×10⁻⁶ cm/s | 15.9 ×10⁻⁶ cm/s | 1.24 | – | 2.34 | 2.27 | 0.81
O=C1/C(=C/c2cccc(O)c2)CNC/C1=C\c1cccc(O)c1 | inactive | Active | 4% | Non-toxic | 15.4 ×10⁻⁶ cm/s | 5.83 ×10⁻⁶ cm/s | 2.64 | 0.38 | 21.9 ×10⁻⁶ cm/s | 6.53 ×10⁻⁶ cm/s | 3.35 | 0.3 | 1.42 | 1.12 | –
COc1ccc(/C=C2\CNC/C(=C\c3ccc(OC)c(OC)c3)C2=O)cc1OC | inactive | Active | 4% | Non-toxic | 14.4 ×10⁻⁶ cm/s | 4.12 ×10⁻⁶ cm/s | 3.5 | 0.29 | 22.2 ×10⁻⁶ cm/s | 8.7 ×10⁻⁶ cm/s | 2.55 | 0.39 | 1.54 | 2.11 | –
CCOC(=O)c1ccc(/C=C2\CNC/C(=C\c3ccc(C(=O)OCC)cc3)C2=O)cc1 | inactive | Active | 4% | Non-toxic | 2.82 ×10⁻⁶ cm/s | 0.99 ×10⁻⁶ cm/s | 2.85 | 0.35 | 2.7 ×10⁻⁶ cm/s | 0.99 ×10⁻⁶ cm/s | 2.73 | 0.37 | 0.96 | 1 | –
O=C(/C=C/c1ccccc1)c1ccccc1 [CHALCONE] | inactive | Active | 4% | Non-toxic | 2.89 ×10⁻⁶ cm/s | 1.05 ×10⁻⁶ cm/s | 2.75 | 0.36 | 3.84 ×10⁻⁶ cm/s | 1.26 ×10⁻⁶ cm/s | 3.05 | 0.33 | 1.33 | 1.2 | –
CCOP(=O)(OCC)N1C/C(=C\c2cc(OC)c(OC)c(OC)c2)C(=O)/C(=C/c2cc(OC)c(OC)c(OC)c2)C1 | inactive | Active | 4% | Non-toxic | 28.5 ×10⁻⁶ cm/s | 8.82 ×10⁻⁶ cm/s | 3.23 | 0.31 | 105 ×10⁻⁶ cm/s | 50.3 ×10⁻⁶ cm/s | 2.08 | 0.48 | 3.68 | 5.73 | –
COc1cccc(/C=C2\CNC/C(=C\c3cccc(OC)c3OC)C2=O)c1OC | inactive | Active | 4% | Non-toxic | 23.4 ×10⁻⁶ cm/s | 7.22 ×10⁻⁶ cm/s | 3.24 | 0.31 | 14.7 ×10⁻⁶ cm/s | 6.28 ×10⁻⁶ cm/s | 2.34 | 0.43 | 0.63 | 0.87 | –
CCOP(=O)(OCC)N1C/C(=C\c2ccc(OC)c(OC)c2)C(=O)/C(=C/c2ccc(OC)c(OC)c2)C1 | inactive | Active | 4% | Non-toxic | 54.7 ×10⁻⁶ cm/s | 8.17 ×10⁻⁶ cm/s | 6.7 | 0.15 | 62.3 ×10⁻⁶ cm/s | 27.7 ×10⁻⁶ cm/s | 2.25 | 0.44 | 1.14 | 3.39 | –
